Here are results for six compounds from ChEMBL document CHEMBL5252565, “Advances in research on 3C-like protease (3CLpro) inhibitors against SARS-CoV-2 since 2020” (RSC Med Chem, 2023).

Series [1] is filed under the species Homo sapiens. Briefly: Antiviral activity against SARS-CoV-2 infected in human A549-ACE2 cells by immunofluorescence microscopic technique. In kind it is functional, cell-based.
The target in series [2] is T1, Replicase polyprotein 1ab (Severe acute respiratory syndrome coronavirus 2, UniProt P0DTD1). Briefly: Inhibition of SARS-CoV-2 3CL protease expressed in escherichia coli measured after 24 hrs by SDS-PAGE.
For series [3], the system named is SARS-CoV-2. Briefly: Antiviral activity against SARS-CoV-2 infected in African green monkey Vero E6 cells assessed as reduction in infection measured after 24 hrs by Plaque assay. In kind it is functional, organism-based. The settings on record: Severe acute respiratory syndrome coronavirus 2, Vero C1008, 24 h.
Series [4] concerns the target T1, Replicase polyprotein 1ab. Briefly: Inhibition of SARS-CoV-2 3CL protease.
The test system of series [5] is SARS-CoV-2. Briefly: Antiviral activity against SARS-CoV-2 infected in […] Caco-2 cells. The conditions noted are these: Severe acute respiratory syndrome coronavirus 2, Caco-2. The series is classed as functional, organism-based.
Series [6] has as its target Trypsin (Homo sapiens, UniProt P07477+P07478+P35030). Briefly: Inhibition of human Trypsin using Z-Phe-Arg-AMC as substrate incubated for 30 mins by FRET assay. The series is classed as protein assay.
Series [7] addresses T2, Caspase-3 (Homo sapiens, UniProt P42574).
T2 sequence (P42574 whole entry): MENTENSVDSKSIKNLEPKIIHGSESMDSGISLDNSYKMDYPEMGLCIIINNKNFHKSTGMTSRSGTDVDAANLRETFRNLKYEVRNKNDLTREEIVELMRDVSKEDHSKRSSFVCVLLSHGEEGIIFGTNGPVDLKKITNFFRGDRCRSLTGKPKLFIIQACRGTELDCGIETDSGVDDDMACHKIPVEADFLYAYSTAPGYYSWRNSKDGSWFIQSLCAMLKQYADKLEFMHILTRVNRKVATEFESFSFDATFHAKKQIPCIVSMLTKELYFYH
Briefly: Inhibition of human caspase 3 using Z-Phe-Arg-AMC as substrate incubated for 30 mins by FRET assay.

Series [8] is described as follows: Inhibition of human cathepsin using Z-Phe-Arg-AMC as substrate incubated for 30 mins by FRET assay.
In series [9] the test system is SARS-CoV-2. Briefly: Antiviral activity against SARS-CoV-2 infected in African green monkey Vero E6 cells. The series is classed as functional, organism-based. The conditions noted are these: Severe acute respiratory syndrome coronavirus 2, Vero C1008.
The target in series [10] is T3, Calpain1/2 (Homo sapiens, UniProt P17655+P07384).
T3 sequence (P17655 whole entry): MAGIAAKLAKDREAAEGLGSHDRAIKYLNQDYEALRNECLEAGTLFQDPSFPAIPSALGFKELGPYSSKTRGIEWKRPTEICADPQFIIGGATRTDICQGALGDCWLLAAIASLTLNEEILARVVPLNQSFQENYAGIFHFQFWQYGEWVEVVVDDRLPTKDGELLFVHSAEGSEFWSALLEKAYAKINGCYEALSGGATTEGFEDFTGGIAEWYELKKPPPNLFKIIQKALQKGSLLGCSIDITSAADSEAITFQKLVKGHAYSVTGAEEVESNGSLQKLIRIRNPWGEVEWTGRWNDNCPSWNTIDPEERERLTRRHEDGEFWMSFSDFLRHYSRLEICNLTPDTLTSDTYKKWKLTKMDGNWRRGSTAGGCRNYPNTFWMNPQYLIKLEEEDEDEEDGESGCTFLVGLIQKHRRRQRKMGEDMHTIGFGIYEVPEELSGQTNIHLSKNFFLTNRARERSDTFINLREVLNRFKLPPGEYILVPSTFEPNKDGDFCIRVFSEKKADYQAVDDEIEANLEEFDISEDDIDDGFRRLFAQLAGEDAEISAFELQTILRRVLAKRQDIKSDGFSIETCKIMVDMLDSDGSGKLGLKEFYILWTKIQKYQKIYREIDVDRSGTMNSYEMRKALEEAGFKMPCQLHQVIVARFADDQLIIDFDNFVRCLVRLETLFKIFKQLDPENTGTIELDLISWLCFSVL
T3 sequence (P07384 whole entry): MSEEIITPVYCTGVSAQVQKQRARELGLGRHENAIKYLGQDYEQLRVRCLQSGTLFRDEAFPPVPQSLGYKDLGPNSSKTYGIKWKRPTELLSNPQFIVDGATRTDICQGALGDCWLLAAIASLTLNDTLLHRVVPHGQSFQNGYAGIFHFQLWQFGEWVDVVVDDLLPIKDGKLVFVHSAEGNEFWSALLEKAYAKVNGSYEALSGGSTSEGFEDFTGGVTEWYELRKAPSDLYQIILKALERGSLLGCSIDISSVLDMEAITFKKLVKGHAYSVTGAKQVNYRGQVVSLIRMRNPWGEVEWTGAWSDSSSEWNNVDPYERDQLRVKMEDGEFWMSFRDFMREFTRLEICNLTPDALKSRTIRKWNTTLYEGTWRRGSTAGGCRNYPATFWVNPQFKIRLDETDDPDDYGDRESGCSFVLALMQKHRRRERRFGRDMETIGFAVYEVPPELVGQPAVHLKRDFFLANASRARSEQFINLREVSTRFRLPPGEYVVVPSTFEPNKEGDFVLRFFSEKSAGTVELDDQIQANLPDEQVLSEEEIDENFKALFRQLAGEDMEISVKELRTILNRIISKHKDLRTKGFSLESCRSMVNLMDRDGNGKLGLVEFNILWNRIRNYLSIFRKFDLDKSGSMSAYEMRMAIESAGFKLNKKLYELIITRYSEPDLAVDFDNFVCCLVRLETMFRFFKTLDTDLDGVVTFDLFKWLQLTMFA
Briefly: Inhibition of human calpain using Z-Phe-Arg-AMC as substrate incubated for 30 mins by FRET assay. The series is classed as protein assay.

The species entered for series [11] is Homo sapiens. Nature of the series: Antiviral activity against SARS-CoV-2 infected in human A549-ACE2 cells. In kind it is functional, cell-based.
Series [12] is described as follows: Oral bioavailability in Sprague-Dawley rat by LC-MS/MS analysis. In kind it is ADME, organism-based. The settings on record: in vivo.
Series [13] in a line: Oral bioavailability in mouse by LC-MS/MS analysis. In kind it is ADME, organism-based. The conditions noted are these: in vivo.
For series [14], the target named is T1, Replicase polyprotein 1ab. Nature of the series: Inhibition of SARS-CoV-2 HKU-001a 3CL protease.
The nature of series [15]: Oral bioavailability in Beagle dog by LC-MS/MS analysis. The series is classed as ADME, organism-based, Canis lupus familiaris. The conditions noted are these: in vivo.

As usually defined, the EC50 is the midpoint of the concentration-response curve. One may read the IC50 as the midpoint of a concentration-inhibition curve. The term bioavailability denotes dose-corrected exposure relative to a reference, in per cent.

Turning to `CNC(=O)c1cc(Br)cc([N+](=O)[O-])c1N[C@@H]1CCCC[C@@H]1NC(=O)c1cccc2ccccc12`, the concentration for a half-maximal effect (EC50) in [1] was 0.012 µM. Further, the IC50 in [2] was found to be 0.072 µM.

Regarding `O=C[C@H](C[C@@H]1CCNC1=O)NC(=O)[C@H](Cc1cccc(F)c1)NC(=O)c1cc2ccccc2[nH]1`, in [3], the IC50 was 0.72 µM.

Compound `O=C[C@H](C[C@@H]1CCNC1=O)NC(=O)[C@@H]1[C@H]2CCC[C@H]2CN1C(=O)CCc1cc(F)cc(F)c1` returned a 50% inhibitory concentration (IC50) in series [4] of 7.6 µM.

Turning to `C[C@H](NC(=O)[C@@H](c1cccnc1)N(C(=O)C(Cl)Cl)c1ccc(-c2ccccc2)cc1)c1ccccc1`, the EC50 in [5] is 2.05 µM; in series [9], 0.9 µM. In addition, the IC50 in [6], in series [7], in [8] and in series [10] was over 20 µM throughout.

As to `Cc1ccc(NC(=O)c2ccc(CN3CCN(C)CC3)cc2)cc1Nc1nc(-c2cccnc2)cs1` [MASITINIB], the EC50 in series [11] came to 3.2 µM.

Consider `[2H][C@](C(=O)N[C@@H](C)c1ccc(F)cc1)(c1cccnc1)N(C(=O)C(C)=O)c1ccc2c(c1)oc1ccccc12`, for which the bioavailability in [12] came to 31.9%; in series [13] it was 92.9%; in [15], 85.7%. The compound also showed a half-maximal inhibitory concentration (IC50) in series [14] of 0.0081 µM.
